Assay results published in patent US8173120B2, “Method of preventing reduced feed intake in animals and treatment of disease conditions” (Precision Nutrition Pty Ltd, priority 2005, dated 2012).
Where two headings read alike, the source gives them in different places.

Assays:
[1] = horses, very high concentrations (500 mg/kg complete feed); cited from earlier work
[2] = feed intake of horses on sudden or gradual introduction of virginiamycin (Founderguard); type: in vivo
Experimental: The aim of the experiment was to determine if there is a depression in feed intake when horses are first given Founderguard at the recommended dose rate of 0.5 mg virginiamycin per kg body weight per day, and whether a gradual or sudden introduction of Founderguard has different effects on feed intake during the introductory period.
Five horses of mixed ages and sexes were used in the experiment. All horses were treated against intestinal parasites prior to the Control period.
Open air feeding stalls approximately 2.5 m square were prepared with ground-level hay feeders, car tyre bucket-holders for feeding grain and a water trough shared between two stalls. Horses entered the stalls around 7.00 AM each day and were let out for exercise around 5.00 PM. […]
All the oats offered were consumed. Intake of all feed was measured on an ‘as-fed’ basis. […] While not measured objectively the quality of hay used in Period 2 was considered to be of higher quality than that used in Period 1. The effect of treatment on feed intake for each horse was calculated each day as a percentage of the mean intake for that animal during the five days of ‘Control’ intake measurement. […]
Feed intake was measured for at least 5 days without Founderguard (control intake) before commencing the five day treatment period. […]

virginiamycin
effect on feed intake [1]: reduce feed intake | effect on feed intake ([2]; gradual introduction over 4 days (25, 50, 75, 100% of complete dose)): does not cause a depression in feed intake | feed intake compared to pretreatment levels (day 0) and to gradual introduction ([2]; sudden introduction of the full dose (0.5 mg/kg bodyweight per day)): significant decrease in feed intake
